Source: patent US20230021483A1, “[…] […] METHOD AND CLASSIFICATION OF PHARMACEUTICAL COMPONENTS BY USING TRANSCRIPTOMES” (National Institutes of Biomedical Innovation, Health and …, priority 2016, published 2023)
Several values for one entry are separate records, joined by “and”; a condition that tells them apart may be missing. Equal entries are not always repeated.

Key:
Type in all cases: in vivo, C57BL/6 mice
[1] = system: inguinal lymph nodes (LN); assay: Whole organ transcriptome (GeneChip microarray) of draining inguinal lymph nodes 6 h after adjuvant administration: sDEGs, gene modules, hierarchical clustering; settings: lymph node; for adjuvant group (cluster) in LN: key: G1 (interferon signaling); G2 (metabolism of lipids and lipoproteins); G3 (response to stress); G4 (response to wounding); G5 (phosphate-containing compound metabolic process); G6 (phagosome)
[2] = system: preferentially upregulated genes in LV, SP, LN; assay: Z-score-based differential gene expression analysis (adjuvant group- or adjuvant-associated genes, 40 module mapping, TargetMine annotation); settings: for Adar 1425405_a_at (Group G1, Modules 20) / Adar 1434268_at (Group G1, Modules 20) / Ddx58 1436562_at (Group G1, Modules 20) / Ddx58 1456890_at (Group G1, Modules 20) / Gm9706///Isg15 1431591_s_at (Group G1, Modules 20) / Ifit1 1450783_at (Group G1, Modules 20) / Ifit3 1449025_at (Group G1, Modules 20) / Irgm1 1418825_at (Group G1, Modules 20) / Mndal 1426906_at (Group G1, Modules 20) / Rsad2 1436058_at (Group G1, Modules 20) / Shisa5 1423986_a_at (Group G1, Modules 20) / Shisa5 1437503_a_at (Group G1, Modules 20) / Stat1 1450033_a_at (Group G1, Modules 20) / Stat1 1450034_at (Group G1, Modules 20) / Tor1aip2 1435526_at (Group G1, Modules 20): IP, LV
How it was run: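 Per-sample fold-change values converted to gene-wise z-scores within each organ's data set, then triplicate z-scores summed per adjuvant. Genes with summed score >3 taken as preferentially expressed; gene groups defined by combined per-adjuvant z-score thresholds (z>1 to z>3) specific to each organ.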

spleen (SP) = assay: Whole organ transcriptome (GeneChip microarray) of spleen 6 h after adjuvant administration: sDEGs, hierarchical clustering; settings: for Number of gene probes with statistically significant changes (sDEGs), SP, Down: fold change <0.667, p<0.01, customized PA call=1, 6 h after adjuvant; for Number of gene probes with statistically significant changes (sDEGs), SP, Up: fold change >1.5, p<0.01, customized PA call=1, 6 h after adjuvant; for adjuvant group (cluster) in SP: key: G1 (interferon signaling); G2 (metabolism of lipids and lipoproteins); G3 (response to stress); G4 (response to wounding); G5 (phosphate-containing compound metabolic process); G6 (phagosome)
liver (LV) = assay: Whole organ transcriptome (GeneChip microarray) of liver 6 h after adjuvant administration: sDEGs, hierarchical clustering; settings: liver; for Number of gene probes with statistically significant changes (sDEGs), LV, Down: fold change <0.667, p<0.01, customized PA call=1; for Number of gene probes with statistically significant changes (sDEGs), LV, Down / Number of gene probes with statistically significant changes (sDEGs), LV, Up: 6 h after adjuvant; for Number of gene probes with statistically significant changes (sDEGs), LV, Up: fold change >1.5, p<0.01, customized PA call=1; for adjuvant group (cluster) in LV: key: G1 (interferon signaling); G2 (metabolism of lipids and lipoproteins); G3 (response to stress); G4 (response to wounding); G5 (phosphate-containing compound metabolic process); G6 (phagosome)
[3] = liver (LV), gene group G1, module 20, individual mice x1-x3, route ID/IP/IN

`CC(O)COC[C@H]1O[C@@H]2O[C@H]3[C@H](O)[C@@H](O)[C@@H](O[C@H]4[C@H](O)[C@@H](O)[C@@H](O[C@H]5[C@H](O)[C@@H](O)[C@@H](O[C@H]6[C@H](O)[C@@H](O)[C@@H](O[C@H]7[C@H](O)[C@@H](O)[C@@H](O[C@H]8[C@H](O)[C@@H](O)[C@@H](O[C@H]1[C@H](O)[C@H]2O)O[C@@H]8COCC(C)O)O[C@@H]7COCC(C)O)O[C@@H]6COCC(C)O)O[C@@H]5COCC(C)O)O[C@@H]4COCC(C)O)O[C@@H]3COCC(C)O` (stereo partly drawn) [bCD, Hydroxypropyl-beta-cyclodextrin] was tested, and the “adjuvant group (cluster) in LN” value ([1]; hierarchical clustering) was “G2”, the “Number of gene probes with statistically significant changes (sDEGs), LN, Down” value ([1]; i.d. administration, fold change <0.667, p<0.01, customized PA call=1, 6 h after adjuvant) was 110 and the “Number of gene probes with statistically significant changes (sDEGs), LN, Up” value ([1]; i.d. administration, fold change >1.5, p<0.01, customized PA call=1, 6 h after adjuvant) was 89. For the same molecule, the “Adar 1425405_a_at (Group G1, Modules 20)” value ([2]; sample x1) was −0.5, the “Adar 1434268_at (Group G1, Modules 20)” value ([2]; sample x1) was −0.3 and the “Ddx58 1436562_at (Group G1, Modules 20)” value ([2]; sample x1) was −0.4. For the same molecule, the “Ddx58 1456890_at (Group G1, Modules 20)” value ([2]; sample x1) was −0.6, the “Gm9706///Isg15 1431591_s_at (Group G1, Modules 20)” value (“Gm9706///Isg15 1431591_s_at” for short) ([2]; sample x1) was −0.5 and the “Ifit1 1450783_at (Group G1, Modules 20)” value ([2]; sample x1) was −0.5. For the same molecule, the “Ifit3 1449025_at (Group G1, Modules 20)” value ([2]; sample x1) was −0.5, the “Irgm1 1418825_at (Group G1, Modules 20)” value ([2]; sample x1) was −0.5 and the “Mndal 1426906_at (Group G1, Modules 20)” value ([2]; sample x1) was −0.3. The “Rsad2 1436058_at (Group G1, Modules 20)” value ([2]; sample x1) was −0.5, the “Shisa5 1423986_a_at (Group G1, Modules 20)” value (from here on “Shisa5 1423986_a_at”) ([2]; sample x1) was −0.6 and the “Shisa5 1437503_a_at (Group G1, Modules 20)” value (from here on “Shisa5 1437503_a_at”) ([2]; sample x1) was −0.4. For the same molecule, the “Stat1 1450033_a_at (Group G1, Modules 20)” value (from here on “Stat1 1450033_a_at”) ([2]; sample x1) was −0.5, the “Stat1 1450034_at (Group G1, Modules 20)” value ([2]; sample x1) was −0.5 and the “Tor1aip2 1435526_at (Group G1, Modules 20)” value (“Tor1aip2 1435526_at” for short) ([2]; sample x1) was −0.4. For the same molecule, the “Adar 1425405_a_at (Group G1, Modules 20)” value ([2]; sample x2) was −0.4, the “Adar 1434268_at (Group G1, Modules 20)” value ([2]; sample x2) was −0.4 and the “Ddx58 1436562_at (Group G1, Modules 20)” value ([2]; sample x2) was −0.3. The “Ddx58 1456890_at (Group G1, Modules 20)” value ([2]; sample x2) was −0.4, the “Gm9706///Isg15 1431591_s_at” value ([2]; sample x2) was −0.5 and the “Ifit1 1450783_at (Group G1, Modules 20)” value ([2]; sample x2) was −0.5. The “Ifit3 1449025_at (Group G1, Modules 20)” value ([2]; sample x2) was −0.5, the “Irgm1 1418825_at (Group G1, Modules 20)” value ([2]; sample x2) was −0.6 and the “Mndal 1426906_at (Group G1, Modules 20)” value ([2]; sample x2) was −0.3. The “Rsad2 1436058_at (Group G1, Modules 20)” value ([2]; sample x2) was −0.4, the “Shisa5 1423986_a_at” value ([2]; sample x2) was −0.3 and the “Shisa5 1437503_a_at” value ([2]; sample x2) was −0.3. For the same molecule, the “Stat1 1450033_a_at” value ([2]; sample x2) was −0.6, the “Stat1 1450034_at (Group G1, Modules 20)” value ([2]; sample x2) was −0.5 and the “Tor1aip2 1435526_at” value ([2]; sample x2) was −0.3. For the same molecule, the “Adar 1425405_a_at (Group G1, Modules 20)” value ([2]; sample x3) was −0.3, the “Adar 1434268_at (Group G1, Modules 20)” value ([2]; sample x3) was −0.4 and the “Ddx58 1436562_at (Group G1, Modules 20)” value ([2]; sample x3) was −0.1. The “Ddx58 1456890_at (Group G1, Modules 20)” value ([2]; sample x3) was −0.3, the “Gm9706///Isg15 1431591_s_at” value ([2]; sample x3) was −0.5 and the “Ifit1 1450783_at (Group G1, Modules 20)” value ([2]; sample x3) was −0.5. For the same molecule, the “Ifit3 1449025_at (Group G1, Modules 20)” value ([2]; sample x3) was −0.5, the “Irgm1 1418825_at (Group G1, Modules 20)” value ([2]; sample x3) was −0.5 and the “Mndal 1426906_at (Group G1, Modules 20)” value ([2]; sample x3) was −0.5. For the same molecule, the “Rsad2 1436058_at (Group G1, Modules 20)” value ([2]; sample x3) was −0.4, the “Shisa5 1423986_a_at” value ([2]; sample x3) was −0.3 and the “Shisa5 1437503_a_at” value ([2]; sample x3) was −0.3. For the same molecule, the “Stat1 1450033_a_at” value ([2]; sample x3) was −0.5, the “Stat1 1450034_at (Group G1, Modules 20)” value ([2]; sample x3) was −0.5 and the “Tor1aip2 1435526_at” value ([2]; sample x3) was −0.6. The “Z score of gene expression, Adar (probe 1425405_a_at)” value [2, 3] was −0.4 and −0.6 and −0.7, the “Z score of gene expression, Adar (probe 1434268_at)” value [2, 3] was −0.1 and −0.5 and −0.3 and the “Z score of gene expression, Ddx58 (probe 1436562_at)” value [2, 3] was −0.7. The “Z score of gene expression, Ddx58 (probe 1456890_at)” value [2, 3] was −0.6 and −0.7 (2×), the “Z score of gene expression, Eif2ak2 (probe 1422005_at)” value [2, 3] was −0.4 and −0.6 and −0.5 and the “Z score of gene expression, G3bp2 (probe 1421323_a_at)” value [2, 3] was −0.3 (2×) and −0.4. For the same molecule, the “Z score of gene expression, Gm9706///Isg15 (probe 1431591_s_at)” value [2, 3] was −0.5, the “Z score of gene expression, H2-T10///H2-T22///H2-T9 (probe 1449875_s_at)” value [2, 3] was −0.6 (2×) and −0.8 and the “Z score of gene expression, Ifih1 (probe 1426276_at)” value [2, 3] was −0.5 and −0.6 (2×). For the same molecule, the “Z score of gene expression, Ifit1 (probe 1449025_at)” value [2, 3] was −0.5, the “Z score of gene expression, Ifit1 (probe 1450783_at)” value [2, 3] was −0.5 and the “Z score of gene expression, Irf7 (probe 1417244_a_at)” value [2, 3] was −0.4 (2×) and −0.5. The “Z score of gene expression, Irgm1 (probe 1418825_at)” value [2, 3] was −0.5 and −0.7 and −0.6, the “Z score of gene expression, Mndal (probe 1426906_at)” value [2, 3] was −0.5 and −0.6 (2×) and the “Z score of gene expression, Pml (probe 1448757_at)” value [2, 3] was −0.6 and −0.7 (2×). For the same molecule, the “Z score of gene expression, Pml (probe 1456103_at)” value [2, 3] was −0.6 (2×) and −0.5, the “Z score of gene expression, Rnf213 (probe 1455500_at)” value [2, 3] was −0.5 and −0.6 (2×) and the “Z score of gene expression, Rsad2 (probe 1436058_at)” value [2, 3] was −0.5. For the same molecule, the “Z score of gene expression, Shisa5 (probe 1423986_a_at)” value [2, 3] was −0.6 and −0.7 and −0.8, the “Z score of gene expression, Shisa5 (probe 1437503_a_at)” value [2, 3] was −0.4 and −0.7 and −0.5 and the “Z score of gene expression, Stat1 (probe 1450033_a_at)” value [2, 3] was −0.6. For the same molecule, the “Z score of gene expression, Stat1 (probe 1450034_at)” value [2, 3] was −0.5 and −0.6 (2×), the “Z score of gene expression, Tdrd7 (probe 1426716_at)” value [2, 3] was −0.7 and −1 and −0.9 and the “Z score of gene expression, Tor1aip2 (probe 1418115_s_at)” value [2, 3] was −0.2 and −0.7 and −0.6. For the same molecule, the “Z score of gene expression, Tor1aip2 (probe 1418116_at)” value [2, 3] was −0.4 and −0.8 and −0.6, the “Z score of gene expression, Tor1aip2 (probe 1435526_at)” value [2, 3] was −0.4 (2×) and −0.7 and the “Z score of gene expression, Trim12a (probe 1437432_a_at)” value [2, 3] was −0.5. The “Z score of gene expression, Uba7 (probe 1426970_a_at)” value [2, 3] was −0.6 (2×) and −0.7, the “adjuvant group (cluster) in SP” value (spleen (SP); hierarchical clustering) was “G2” and the “Number of gene probes with statistically significant changes (sDEGs), SP, Down” value (spleen (SP); i.d. administration) was 59. For the same molecule, the “Number of gene probes with statistically significant changes (sDEGs), SP, Up” value (spleen (SP); i.d. administration) was 111, the “Number of gene probes with statistically significant changes (sDEGs), SP, Down” value (spleen (SP); i.p. administration) was 5 and the “Number of gene probes with statistically significant changes (sDEGs), SP, Up” value (spleen (SP); i.p. administration) was 4. For the same molecule, the “adjuvant group (cluster) in LV” value (liver (LV); hierarchical clustering) was “G2”, the “Number of gene probes with statistically significant changes (sDEGs), LV, Down” value (liver (LV); i.d. administration) was 315 and the “Number of gene probes with statistically significant changes (sDEGs), LV, Up” value (liver (LV); i.d. administration) was 107. For the same molecule, the “Number of gene probes with statistically significant changes (sDEGs), LV, Down” value (liver (LV); i.p. administration) was 20 and the “Number of gene probes with statistically significant changes (sDEGs), LV, Up” value (liver (LV); i.p. administration) was 14.
